# Laboratory results taken from patent US8871812B2, “Therapeutic regimen comprising PEG-interferon, ribavirin and VX-950 for the treatment of hepatitis” (priority 2008, dated 2014).
# Columns and labels:
# [1] = system: neopterin; experiment: Serum neopterin concentration (competitive ELISA) during 14-day VX-950 dosing; format: in vivo, human; details: 450 mg q8h and 1250 mg q12h dose groups, versus 750 mg q8h
# Protocol: Accordingly, applicants determined the changes in serum neopterin concentration as a marker of monocyte/macrophage activity during administration of an inhibitor of (HCV) NS3·4A protease. As described herein, VX-950 was administered for 14 days in a randomized, double blind, placebo controlled, multiple-dose study in 34 patients infected with HCV genotype 1. Patients received VX-950 450 mg q8h (n=10), 750 mg q8h (n=8), 1250 mg q12h (n=10), or placebo (n=6). Serum neopterin concentrations were measured by a quantitative competitive ELISA (ELItest® Neopterin, Brahms, Hennigsdorf, Germany) at pretreatment, at day 7 and 14, and at day 10 of follow-up. The lower limit of detection (LLD) was 2 nmol/I. HCV RNA was assessed at frequent intervals during the study by real-time PCR (COBAS TAQMAN™ HCV Test; linear dynamic range of 3.0 ×10^1 to 2.0 ×10^8 HCV RNA IU/ml; LLD of 10 HCV RNA IU/ml; Roche Diagnostics, Branchburg, N.J.).
# [2] = human, in vivo
# [3] = system: HCV genotype 1; experiment: Phase 2 studies PROVE1 and PROVE2: sustained virologic response; format: in vivo, human; details: treatment-naïve genotype 1 patients
# [4] = Oral bioavailability and plasma trough levels of VX-950; format: in vivo
# Source text: The trough level is the concentration that a drug drops down to in plasma just before next dose (i.e., the minimum concentration between doses). It is important, particularly in viral diseases, to maintain drug levels above a certain concentration to maintain appropriate inhibition of viral replication.
# Accordingly, preferred pharmaceutical compositions of this invention are formulated for oral administration.
# [5] = system: alanine aminotransferase (ALT); experiment: Serum ALT level during 14-day VX-950 dosing; format: in vivo, human; details: all groups, elevated at baseline
# Source text: The serum alanine aminotransferase (ALT) level can be measured using commercially available methods. Mean ALT levels, elevated at baseline, decreased during dosing in all groups. Mean ALT levels increased, returned toward baseline, in all dose groups during follow up.
# [6] = C208 Phase 2 study: pharmacokinetics of TVR in plasma; format: in vivo, human; details: for Cmin, mean ± SD: Week 8
# Protocol: (§1) Assessment of virologic breakthrough (defined as a >1-log 10 increase in HCV RNA from nadir, or HCV RNA>100 IU/mL in subjects whose HCV RNA had previously become undetectable [<10 IU/mL] at all assessment timepoints) was performed. Pharmacokinetics and viral dynamics were assessed by pre-defined serial measurements of plasma concentrations of TVR and HCV RNA, respectively, from baseline to Week 12. Pharmacokinetic analysis of TVR was performed using non-compartmental methods for data from full pharmacokinetic profiles. A viral dynamics model, which included fixed effects for treatment and random effects for clearance, drug effect, drop and death rate in infected cells with unstructured variance covariance matrix, was also constructed. Safety and tolerability were assessed by monitoring adverse events (AEs), laboratory abnormalities and cardiovascular parameters.
# [7] = system: HCV genotype 1; experiment: C208 Phase 2 study of telaprevir q8h or q12h with peginterferon alfa-2a or alfa-2b and ribavirin: HCV RNA; format: in vivo, human; details: for RVR (subjects with undetectable HCV RNA, <10 IU/mL, at week 4): listed as TVR
# Protocol: Background: Study 0208 is an ongoing open-label, randomized Phase 2 study of telaprevir (TVR) administered q8h or q12h in combination with peginterferon-alfa-2a (peginterferon-alfa-2a) or peginterferon-alfa-2b and ribavirin (T/PR) in treatment-naïve subjects with HCV genotype 1 infection. We report the results of an interim analysis conducted at week 12 of treatment.
# Subjects in all arms received T/PR treatment for 12 weeks, and will subsequently receive either 12 or 36 additional weeks of PR based on rapid virologic response (RVR) criterion. Subjects who met the definition of viral breakthrough (≧1-log increase in HCV RNA above nadir) discontinued TVR dosing and will complete 48 weeks of PR. An intent-to-treat analysis was performed when all treated subjects had completed week 4 of treatment or had discontinued earlier than week 4. The analysis also assessed all treatment or TVR dosing discontinuations including subjects who discontinued beyond week 4, up to the time of data cutoff. The proportion of subjects with HCV RNA below the limit of detection (TaqMan assay LOD 10 IU/mL) at week 4 (RVR) is reported.
# C208 is an ongoing, open-label, randomized, multicenter, Phase 2 exploratory study. Adult, treatment-naïve subjects with chronic HCV genotype 1 infection were enrolled, including subjects with bridging fibrosis. Inclusion criteria were consistent with those used in prior HCV studies. Subjects received 12 weeks of T/PR, followed by either 12 or 36 additional weeks of PR based on extended rapid virologic response (RVR) criterion (FIG. 1). Subjects with HCV RNA>1000 IU/mL at Week 4, 6 or 8 were required to discontinue TVR dosing and complete 48 weeks of PR.
# An interim intent-to-treat (ITT) analysis was performed and is presented in this report, which includes data obtained for all subjects randomized had completed week 12 of treatment or had discontinued earlier. The primary efficacy endpoint was the proportion of subjects with HCV RNA below the limit of detection (LOD, 10 IU/mL) at different timepoints throughout the first 12 weeks of dosing. HCV RNA levels were measured using the TAQMAN™ HCV RNA assay v2.0 (Roche Molecular Systems Inc., Branchburg, N.J., U.S.A.).
# as §1
# [8] = Week 4, range across the four treatment groups
structure (smiles),measurement,setting,value
CCC[C@H](NC(=O)[C@@H]1[C@H]2CCC[C@H]2CN1C(=O)[C@@H](NC(=O)[C@@H](NC(=O)c1cnccn1)C1CCCCC1)C(C)(C)C)C(=O)C(=O)NC1CC1 [VX-950],change in mean neopterin levels,[1],decreases in mean neopterin levels were smaller
same,overall proportion of TVR discontinuations for any reason,[2]; 4 weeks,12%
same,"Treatment discontinuations (all drugs), Any reason",[2]; 12 weeks,24 (15) n (%)
same,"Treatment discontinuations (all drugs), Due to AEs",[2]; 12 weeks,13 (8) n (%)
same,"sustained virologic response rate, PROVE2",[3]; 24-week TVR-containing regimen versus 48-week peginterferon and ribavirin (p=0.01),69%
same,"sustained virologic response rate, PROVE1",[3]; 24-week TVR-containing regimen versus 48-week peginterferon and ribavirin (p=0.02),61%
same,Plasma trough levels,[4]; 750 mg every 8 hours,higher trough levels
same,Oral bioavailability,"[4]; in vivo, po",orally bioavailable
same,Mean ALT levels,[5],decreased
same,"Cmin, mean ± SD",[6]; TVR 750 mg q8h + Peg-IFN alfa-2a + RBV (n = 40),2624 ± 507 ng/mL
same,"Cmin, mean ± SD",[6]; TVR 750 mg q8h + Peg-IFN alfa-2b + RBV (n = 42),2569 ± 453 ng/mL
same,"Cmin, mean ± SD",[6]; TVR 1125 mg q12h + Peg-IFN alfa-2a + RBV (n = 40),2134 ± 620 ng/mL
same,"Cmin, mean ± SD",[6]; TVR 1125 mg q12h + Peg-IFN alfa-2b + RBV (n = 39),2321 ± 384 ng/mL
same,telaprevir Cmax,[6]; in vivo,higher
same,telaprevir Cmin,"[6]; on average, q12h versus q8h dosing schedules",lower
same,subjects who achieved <10 IU/mL HCV RNA,[7]; [8],67-83%
same,subjects who achieved <25 IU/mL HCV RNA,[7]; [8],87-96%
same,subjects who achieved <10 IU/mL HCV RNA,"[7]; Week 12, range across the four treatment groups",83-93%
same,"RVR (subjects with undetectable HCV RNA, <10 IU/mL, at week 4)",[7]; arm A: TVR 750 mg q8h + Peg-IFN alfa-2a 180 μg/wk + ribavirin 1000-1200 mg/d (N 40),82%
same,number of subjects with viral breakthrough up to week 4,[7]; arm A: TVR 750 mg q8h + Peg-IFN alfa-2a + RBV,0
same,"RVR (subjects with undetectable HCV RNA, <10 IU/mL, at week 4)",[7]; arm B: TVR 750 mg q8h + Peg-IFN alfa-2b 1.5 μg/kg/wk + ribavirin 800-1200 mg/d (N 42),71%
same,number of subjects with viral breakthrough up to week 4,[7]; arm B: TVR 750 mg q8h + Peg-IFN alfa-2b + RBV,2
same,"RVR (subjects with undetectable HCV RNA, <10 IU/mL, at week 4)",[7]; arm C: TVR 1125 mg q12h + Peg-IFN alfa-2a 180 μg/wk + ribavirin 1000-1200 mg/d (N 40),85%
same,number of subjects with viral breakthrough up to week 4,[7]; arm C: TVR 1125 mg q12h + Peg-IFN alfa-2a + RBV,2
same,"RVR (subjects with undetectable HCV RNA, <10 IU/mL, at week 4)",[7]; arm D: TVR 1125 mg q12h + Peg-IFN alfa-2b 1.5 μg/kg/wk + ribavirin 800-1200 mg/d (N 39),68%
same,number of subjects with viral breakthrough up to week 4,[7]; arm D: TVR 1125 mg q12h + Peg-IFN alfa-2b + RBV,1
same,additional breakthroughs after discontinuation of TVR,[7]; both in patients infected with genotype 1a,2
same,Patients with viral breakthrough while on TVR,[7]; q8hr alfa-2a arm,1
same,Patients with viral breakthrough while on TVR,[7]; q8hr alfa-2b arm,3
same,Patients with viral breakthrough while on TVR,[7]; q12 hr alfa-2a arm,2
same,Patients with viral breakthrough while on TVR,[7]; q12 hr alfa-2b arm,3
